Measured values: article PMC5362750, “Discovery of Potent, Selective, and Orally Bioavailable Small-Molecule Modulators of the Mediator Complex-Associated Kinases CDK8 and CDK19” (Journal of Medicinal Chemistry, 2016)

Columns and labels:
beta 3 (h) = biological target: T1, beta 3 (h) (Homo sapiens, UniProt P13945); assay: CEREP binding assay; conditions: antagonist radioligand, read-out: % Inhibition of Control Specific Binding
T1 construct: purchased Millipore (KinaseProfiler) kinase panel

MC1 = biological target: T2, MC1 (Mus musculus, UniProt Q01727); assay: CEREP binding assay; conditions: agonist radioligand, read-out: % Inhibition of Control Specific Binding
T2 construct: purchased Millipore (KinaseProfiler) kinase panel

sst4 (h) = sst4 (h) (Homo sapiens, UniProt P31391); assay: CEREP binding assay; conditions: agonist radioligand, read-out: % Inhibition of Control Specific Binding
UT (h) = biological target: T3, UT (h) (Homo sapiens, UniProt Q9UKP6); assay: CEREP binding assay; conditions: agonist radioligand, read-out: % Inhibition of Control Specific Binding
T3 construct: CEREP

EPHA3 = biological target: T4, EPHA3 (Homo sapiens, UniProt P29320); assay: Kinase panel (Millipore); format: biochemical; conditions: 1 µM, ATP at Km
T4 construct: purchased Millipore (KinaseProfiler) kinase panel

ARK5 = biological target: T5, ARK5 (Homo sapiens, UniProt O60285); assay: Kinase panel (Millipore); format: biochemical; conditions: 1 µM, ATP at Km
T5 construct: purchased Millipore (KinaseProfiler) kinase panel

AXL = biological target: T6, AXL (Homo sapiens, UniProt P30530); assay: Kinase panel (Millipore); format: biochemical; conditions: 1 µM, ATP at Km
T6 construct: purchased Millipore (KinaseProfiler) kinase panel

MAPK2 = MAPK2 (Homo sapiens, UniProt P28482); assay: Kinase panel (Millipore); format: biochemical; conditions: 1 µM, ATP at Km
MAPKAP-K2 = biological target: T7, MAPKAP-K2 (Homo sapiens, UniProt P49137); assay: Kinase panel (Millipore); format: biochemical; conditions: 1 µM, ATP at Km
T7 construct: purchased Millipore (KinaseProfiler) kinase panel

FGFR1 = biological target: T8, FGFR1 (Homo sapiens, UniProt P11362); assay: Kinase panel (Millipore); format: biochemical; conditions: 1 µM, ATP at Km
T8 construct: purchased Millipore (KinaseProfiler) kinase panel

FGFR3 = biological target: T9, FGFR3 (Homo sapiens, UniProt P22607); assay: Kinase panel (Millipore); format: biochemical; conditions: 1 µM, ATP at Km
T9 construct: purchased Millipore (KinaseProfiler) kinase panel

MINK = biological target: T10, MINK (Homo sapiens, UniProt Q8N4C8); assay: Kinase panel (Millipore); format: biochemical; conditions: 1 µM, ATP at Km
T10 construct: purchased Millipore (KinaseProfiler) kinase panel

MLCK = assay: Kinase panel (Millipore); format: biochemical; conditions: 1 µM, ATP at Km
FLT4 = biological target: T11, FLT4 (Homo sapiens, UniProt P35916); assay: Kinase panel (Millipore); format: biochemical; conditions: 1 µM, ATP at Km
T11 construct: purchased Millipore (KinaseProfiler) kinase panel

FMS = biological target: T12, FMS (Homo sapiens, UniProt P07333); assay: Kinase panel (Millipore); format: biochemical; conditions: 1 µM, ATP at Km
T12 construct: purchased Millipore (KinaseProfiler) kinase panel

FYN = FYN (Homo sapiens, UniProt P06241); assay: Kinase panel (Millipore); format: biochemical; conditions: 1 µM, ATP at Km
MSSK1 = biological target: T13, MSSK1 (Homo sapiens, UniProt Q9UPE1); assay: Kinase panel (Millipore); format: biochemical; conditions: 1 µM, ATP at Km
T13 construct: purchased Millipore (KinaseProfiler) kinase panel

HIPK1 = biological target: T14, HIPK1 (Homo sapiens, UniProt Q86Z02); assay: Kinase panel (Millipore); format: biochemical; conditions: 1 µM, ATP at Km
T14 construct: purchased Millipore (KinaseProfiler) kinase panel

IKKBETA = biological target: T15, IKKBETA (Homo sapiens, UniProt O14920); assay: Kinase panel (Millipore); format: biochemical; conditions: 1 µM, ATP at Km
T15 construct: purchased Millipore (KinaseProfiler) kinase panel

IR = biological target: T16, IR (Homo sapiens, UniProt P06213); assay: Kinase panel (Millipore); format: biochemical; conditions: 1 µM, ATP at Km
T16 construct: purchased Millipore (KinaseProfiler) kinase panel

NEK7 = NEK7 (Homo sapiens, UniProt Q8TDX7); assay: Kinase panel (Millipore); format: biochemical; conditions: 1 µM, ATP at Km
DMPK = DMPK (Homo sapiens, UniProt Q09013); assay: Kinase panel (Millipore); format: biochemical; conditions: 1 µM, ATP at Km
ITK = biological target: T17, ITK (Homo sapiens, UniProt Q08881); assay: Kinase panel (Millipore); format: biochemical; conditions: 1 µM, ATP at Km
T17 construct: purchased Millipore (KinaseProfiler) kinase panel

SAPK2B = SAPK2B (Homo sapiens, UniProt Q15759); assay: Kinase panel (Millipore); format: biochemical; conditions: 1 µM, ATP at Km
PI3K BETA = PI3K BETA (Homo sapiens, UniProt P42338); assay: Kinase panel (Millipore); format: biochemical; conditions: 1 µM, ATP at Km
SGK = biological target: T18, SGK (Homo sapiens, UniProt O00141); assay: Kinase panel (Millipore); format: biochemical; conditions: 1 µM, ATP at Km
T18 construct: purchased Millipore (KinaseProfiler) kinase panel

PKCGAMMA = PKCGAMMA (Homo sapiens, UniProt P05129); assay: Kinase panel (Millipore); format: biochemical; conditions: 1 µM, ATP at Km
TIE2 = biological target: T19, TIE2 (Homo sapiens, UniProt Q02763); assay: Kinase panel (Millipore); format: biochemical; conditions: 1 µM, ATP at Km
T19 construct: purchased Millipore (KinaseProfiler) kinase panel

WNK2 = biological target: T20, WNK2 (Homo sapiens, UniProt Q9Y3S1); assay: Kinase panel (Millipore); format: biochemical; conditions: 1 µM, ATP at Km
T20 construct: purchased Millipore (KinaseProfiler) kinase panel

PLK3 = biological target: T21, PLK3 (Homo sapiens, UniProt Q9H4B4); assay: Kinase panel (Millipore); format: biochemical; conditions: 1 µM, ATP at Km
T21 construct: purchased Millipore (KinaseProfiler) kinase panel

PYK2 = biological target: T22, PYK2 (Homo sapiens, UniProt Q14289); assay: Kinase panel (Millipore); format: biochemical; conditions: 1 µM, ATP at Km
T22 construct: purchased Millipore (KinaseProfiler) kinase panel

TXK = biological target: T23, TXK (Homo sapiens, UniProt P42681); assay: Kinase panel (Millipore); format: biochemical; conditions: 1 µM, ATP at Km
T23 construct: purchased Millipore (KinaseProfiler) kinase panel

MTOR = MTOR (Homo sapiens, UniProt P42345); assay: Kinase panel (Millipore); format: biochemical; conditions: 1 µM, ATP at Km
MELK = biological target: T24, MELK (Homo sapiens, UniProt Q14680); assay: Kinase panel (Millipore); format: biochemical; conditions: 1 µM, ATP at Km
T24 construct: purchased Millipore (KinaseProfiler) kinase panel

[1] = male, Wistar, rat, in vivo
AMPA = conditions: 10 µM, agonist radioligand
[2] = system: Ca2+ channel (L, diltiazem site) (benzothiazepines); conditions: 10 µM, antagonist radioligand
RY3 (ryanodine) = conditions: 10 µM, agonist radioligand
GABA transporter = conditions: 10 µM, antagonist radioligand
[…](V561D) = […](V561D) (Homo sapiens, UniProt P16234, V561D); conditions: 1 µM, ATP at Km
EGFR(T790M) = EGFR(T790M) (Homo sapiens, UniProt P00533, T790M); conditions: 1 µM, ATP at Km
in vivo = conditions: male, rat, 0.2 mg/kg
glucagon (h) = glucagon (h) (Homo sapiens, UniProt P47871); assay: biochemical; conditions: read-out: % Inhibition of Control Specific Binding
M4 (h) = M4 (h) (Homo sapiens, UniProt P08173); assay: biochemical; conditions: read-out: % Inhibition of Control Specific Binding

[…](V561D), sequence (P16234 24-1089 V561D): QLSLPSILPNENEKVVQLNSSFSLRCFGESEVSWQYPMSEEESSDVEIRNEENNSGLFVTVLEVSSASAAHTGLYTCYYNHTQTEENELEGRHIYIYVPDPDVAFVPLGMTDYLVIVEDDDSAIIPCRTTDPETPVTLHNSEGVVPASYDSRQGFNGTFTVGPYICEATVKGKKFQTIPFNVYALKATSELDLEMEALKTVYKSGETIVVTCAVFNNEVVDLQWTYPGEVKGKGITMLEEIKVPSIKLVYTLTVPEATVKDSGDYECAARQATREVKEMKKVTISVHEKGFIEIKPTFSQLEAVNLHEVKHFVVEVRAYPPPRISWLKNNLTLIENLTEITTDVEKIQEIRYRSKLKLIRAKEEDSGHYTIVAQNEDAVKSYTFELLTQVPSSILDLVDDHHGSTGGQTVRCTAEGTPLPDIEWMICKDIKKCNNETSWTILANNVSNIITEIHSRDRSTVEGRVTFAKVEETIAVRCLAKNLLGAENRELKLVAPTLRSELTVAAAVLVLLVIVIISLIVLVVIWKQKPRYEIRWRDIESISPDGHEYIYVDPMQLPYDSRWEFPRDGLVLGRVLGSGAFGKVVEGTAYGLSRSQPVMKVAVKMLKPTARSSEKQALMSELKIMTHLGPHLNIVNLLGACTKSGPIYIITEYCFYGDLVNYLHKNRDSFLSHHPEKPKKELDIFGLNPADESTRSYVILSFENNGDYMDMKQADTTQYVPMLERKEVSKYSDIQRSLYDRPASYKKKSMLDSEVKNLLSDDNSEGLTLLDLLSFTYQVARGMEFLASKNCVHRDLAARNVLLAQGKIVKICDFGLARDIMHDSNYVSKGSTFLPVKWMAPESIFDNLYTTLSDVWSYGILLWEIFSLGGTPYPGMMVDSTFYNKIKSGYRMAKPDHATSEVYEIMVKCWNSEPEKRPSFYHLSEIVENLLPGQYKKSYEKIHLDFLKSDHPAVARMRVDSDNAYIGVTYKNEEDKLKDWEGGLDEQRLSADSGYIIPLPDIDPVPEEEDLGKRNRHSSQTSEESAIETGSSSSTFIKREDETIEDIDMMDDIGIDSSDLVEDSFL
T10 sequence (Q8N4C8 whole entry): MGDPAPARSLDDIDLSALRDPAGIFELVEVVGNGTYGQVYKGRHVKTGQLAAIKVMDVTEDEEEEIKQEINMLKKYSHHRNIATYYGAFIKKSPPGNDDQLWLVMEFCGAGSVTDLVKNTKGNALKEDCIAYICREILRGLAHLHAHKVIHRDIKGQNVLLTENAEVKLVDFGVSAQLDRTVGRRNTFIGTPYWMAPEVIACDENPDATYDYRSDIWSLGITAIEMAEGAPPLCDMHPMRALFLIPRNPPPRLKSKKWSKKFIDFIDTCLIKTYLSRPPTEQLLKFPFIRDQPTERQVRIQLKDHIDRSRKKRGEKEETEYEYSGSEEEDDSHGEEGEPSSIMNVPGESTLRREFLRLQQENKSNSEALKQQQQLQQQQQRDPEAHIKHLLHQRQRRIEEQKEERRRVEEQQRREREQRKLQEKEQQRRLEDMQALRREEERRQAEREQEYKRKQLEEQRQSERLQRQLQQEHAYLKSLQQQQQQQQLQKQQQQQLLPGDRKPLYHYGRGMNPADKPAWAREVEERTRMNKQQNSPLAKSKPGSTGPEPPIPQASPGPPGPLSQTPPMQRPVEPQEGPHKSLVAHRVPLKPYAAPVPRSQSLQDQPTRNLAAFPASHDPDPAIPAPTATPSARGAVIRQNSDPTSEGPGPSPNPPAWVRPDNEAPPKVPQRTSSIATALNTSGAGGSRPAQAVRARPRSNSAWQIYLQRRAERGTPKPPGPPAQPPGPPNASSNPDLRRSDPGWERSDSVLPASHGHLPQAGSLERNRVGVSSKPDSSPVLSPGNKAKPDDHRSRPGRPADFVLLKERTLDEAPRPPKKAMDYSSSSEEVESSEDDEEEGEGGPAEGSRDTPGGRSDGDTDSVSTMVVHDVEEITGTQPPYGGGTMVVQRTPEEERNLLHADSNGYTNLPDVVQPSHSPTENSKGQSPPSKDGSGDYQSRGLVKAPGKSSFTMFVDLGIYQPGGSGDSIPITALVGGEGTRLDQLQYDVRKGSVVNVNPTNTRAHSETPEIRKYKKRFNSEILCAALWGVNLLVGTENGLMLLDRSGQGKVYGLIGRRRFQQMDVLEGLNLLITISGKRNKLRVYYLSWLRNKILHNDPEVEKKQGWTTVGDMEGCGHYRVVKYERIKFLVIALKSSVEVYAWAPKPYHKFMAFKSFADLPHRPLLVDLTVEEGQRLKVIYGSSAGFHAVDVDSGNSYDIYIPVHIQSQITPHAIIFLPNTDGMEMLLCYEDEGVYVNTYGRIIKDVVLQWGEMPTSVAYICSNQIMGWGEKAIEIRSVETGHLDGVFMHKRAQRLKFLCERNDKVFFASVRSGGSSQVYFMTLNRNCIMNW
T18 sequence (O00141 whole entry): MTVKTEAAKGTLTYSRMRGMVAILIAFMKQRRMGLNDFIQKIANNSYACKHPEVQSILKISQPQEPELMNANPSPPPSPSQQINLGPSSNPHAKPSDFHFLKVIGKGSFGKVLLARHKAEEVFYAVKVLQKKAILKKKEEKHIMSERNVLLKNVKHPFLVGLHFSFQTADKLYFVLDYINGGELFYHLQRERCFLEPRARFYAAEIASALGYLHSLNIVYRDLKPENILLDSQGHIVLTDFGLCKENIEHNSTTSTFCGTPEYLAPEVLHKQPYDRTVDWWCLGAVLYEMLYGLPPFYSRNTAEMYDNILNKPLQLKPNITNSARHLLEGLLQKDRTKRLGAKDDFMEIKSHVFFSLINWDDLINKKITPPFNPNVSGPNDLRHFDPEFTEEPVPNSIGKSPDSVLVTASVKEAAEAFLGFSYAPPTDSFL
T13 sequence (Q9UPE1 whole entry): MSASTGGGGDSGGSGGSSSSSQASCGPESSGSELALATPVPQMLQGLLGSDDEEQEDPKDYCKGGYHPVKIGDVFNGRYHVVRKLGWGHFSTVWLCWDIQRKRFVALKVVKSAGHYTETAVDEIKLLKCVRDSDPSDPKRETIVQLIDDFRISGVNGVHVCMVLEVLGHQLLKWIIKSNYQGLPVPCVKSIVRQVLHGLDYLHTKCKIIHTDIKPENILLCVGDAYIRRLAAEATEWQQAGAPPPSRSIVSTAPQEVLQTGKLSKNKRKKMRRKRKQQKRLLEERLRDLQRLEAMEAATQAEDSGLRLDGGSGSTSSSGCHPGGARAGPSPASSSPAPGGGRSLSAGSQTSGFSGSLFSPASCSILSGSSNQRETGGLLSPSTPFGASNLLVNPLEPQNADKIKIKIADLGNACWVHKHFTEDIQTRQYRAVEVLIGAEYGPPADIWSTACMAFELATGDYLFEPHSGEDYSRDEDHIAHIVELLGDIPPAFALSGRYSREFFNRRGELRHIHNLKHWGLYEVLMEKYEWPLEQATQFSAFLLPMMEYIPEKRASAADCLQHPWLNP
T19 sequence (Q02763 23-1124): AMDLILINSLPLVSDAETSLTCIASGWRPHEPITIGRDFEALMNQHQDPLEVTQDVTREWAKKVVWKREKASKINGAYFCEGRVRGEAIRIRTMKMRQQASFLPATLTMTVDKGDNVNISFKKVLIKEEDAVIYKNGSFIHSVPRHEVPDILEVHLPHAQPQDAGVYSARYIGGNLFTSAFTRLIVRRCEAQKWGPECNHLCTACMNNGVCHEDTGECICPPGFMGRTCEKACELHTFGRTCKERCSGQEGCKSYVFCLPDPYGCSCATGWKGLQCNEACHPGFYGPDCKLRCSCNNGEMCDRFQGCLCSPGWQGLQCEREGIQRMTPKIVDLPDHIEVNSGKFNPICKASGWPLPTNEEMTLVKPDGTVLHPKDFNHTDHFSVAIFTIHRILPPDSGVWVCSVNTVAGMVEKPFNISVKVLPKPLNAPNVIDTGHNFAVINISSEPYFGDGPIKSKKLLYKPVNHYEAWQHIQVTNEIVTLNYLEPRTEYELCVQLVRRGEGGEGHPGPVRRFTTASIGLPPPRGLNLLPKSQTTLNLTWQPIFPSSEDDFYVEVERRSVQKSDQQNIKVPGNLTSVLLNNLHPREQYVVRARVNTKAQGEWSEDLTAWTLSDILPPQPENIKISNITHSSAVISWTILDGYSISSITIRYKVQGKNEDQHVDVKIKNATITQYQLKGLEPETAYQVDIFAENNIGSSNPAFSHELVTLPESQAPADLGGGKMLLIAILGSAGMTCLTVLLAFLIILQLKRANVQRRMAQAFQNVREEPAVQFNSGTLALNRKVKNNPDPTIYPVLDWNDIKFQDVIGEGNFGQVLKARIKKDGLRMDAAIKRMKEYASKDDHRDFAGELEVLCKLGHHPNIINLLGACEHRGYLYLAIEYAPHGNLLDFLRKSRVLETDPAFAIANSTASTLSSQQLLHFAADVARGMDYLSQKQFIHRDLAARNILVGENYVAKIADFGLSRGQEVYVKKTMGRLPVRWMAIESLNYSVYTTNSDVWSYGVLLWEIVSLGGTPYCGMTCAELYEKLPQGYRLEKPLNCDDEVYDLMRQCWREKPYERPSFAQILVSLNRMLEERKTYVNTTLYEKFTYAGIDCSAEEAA
T7 sequence (P49137 whole entry): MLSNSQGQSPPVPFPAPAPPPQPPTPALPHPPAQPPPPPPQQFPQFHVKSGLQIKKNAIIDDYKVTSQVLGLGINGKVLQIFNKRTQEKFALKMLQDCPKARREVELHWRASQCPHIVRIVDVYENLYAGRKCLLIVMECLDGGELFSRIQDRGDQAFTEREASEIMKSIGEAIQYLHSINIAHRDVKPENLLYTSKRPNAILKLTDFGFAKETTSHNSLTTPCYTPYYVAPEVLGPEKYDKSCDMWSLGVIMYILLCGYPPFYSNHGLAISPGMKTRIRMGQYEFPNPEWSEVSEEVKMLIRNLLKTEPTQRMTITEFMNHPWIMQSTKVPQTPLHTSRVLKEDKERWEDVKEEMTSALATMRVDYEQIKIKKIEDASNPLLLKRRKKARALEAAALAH

Cn1ncc2cc(-c3cnc(N)c(Cl)c3N3CCC4(CCNC4=O)CC3)ccc21 [Compound 109, 8-(2-Amino-3-chloro-5-(1-methyl-1H-indazol-5-yl)pyridin-4-yl)-2,8-diazaspiro[4.5]decan-1-one]
inhibition at 10 µM (beta 3 (h)): -16% | inhibition at 10 µM (MC1): -8% | inhibition at 10 µM (sst4 (h)): 9% | inhibition at 10 µM (UT (h)): 33% | % effect (EPHA3): 5% | % effect (ARK5): 10% | % effect (AXL): -4% | % effect (MAPK2): -6% | % effect (MAPKAP-K2): 1% | % effect (FGFR1): 7% | % effect (FGFR3): -9% | % effect (MINK): 22% | % effect (MLCK): 3% | % effect (FLT4): -38% | % effect (FMS): -23% | % effect (FYN): 23% | % effect (MSSK1): -1% | % effect (HIPK1): 5% | % effect (IKKBETA): -2% | % effect (IR): -5% | % effect (NEK7): 15% | % effect (DMPK): 4% | % effect (ITK): -9% | % effect (SAPK2B): -3% | % effect (PI3K BETA): 2% | % effect (SGK): 0% | % effect (PKCGAMMA): -6% | % effect (TIE2): 14% | % effect (WNK2): 27% | % effect (PLK3): -2% | % effect (PYK2): -2% | % effect (TXK): -5% | % effect (MTOR): -3% | % effect (MELK): 3% | LBF [1]: 34% | % Inhibition of Control Specific Binding (AMPA): 3% | % Inhibition of Control Specific Binding [2]: 5% | % Inhibition of Control Specific Binding (RY3 (ryanodine)): 1% | % Inhibition of Control Specific Binding (GABA transporter): 3% | % effect ([…](V561D)): 0% | % effect (EGFR(T790M)): 11% | Vd (in vivo): 2 L/kg | clearance (in vivo; iv): 24.8 mL/min/kg | inhibition at 10 µM (glucagon (h)): -7% | inhibition at 10 µM (M4 (h)): 22%
